The values below are quoted from earlier work in patent US8911765B2, “Biodegradable, polymer coverings for breast implants” (Tyrx, Inc., priority 2007, dated 2014).

For this data set the following is noted: rabbit, in vivo.

Structures are written as SMILES.

Consider `O=S(=O)([O-])CCS.[Na+]` [Mesna, sodium 2-mercaptoethane sulfonate], for which the “capsule formation around implants” value is given as “reduce capsule formation”.
